pIC50: −log10 of the molar value. Active and inactive are the calls of the source. The calls are words filed in the database; no cut-off is given here.
How the values were obtained:
[1] = system: RKO; assay: Induction of apoptosis in human RKO cells assessed as increase in cleaved caspase-9 protein level at 3 to 9 uM incubated for 24 hrs by western blot analysis; assay type: functional, cell-based; details: dose 3-9 µM
[2] = system: RKO; assay: Inhibition of NF-kappaB signalling pathway in human RKO cells assessed as decrease in phosphorylated NF-kappaB p65 level at 3 to 9 uM incubated for 24 hrs by Western blot analysis; assay type: cell-based; details: dose 3-9 µM
[3] = system: RKO; assay: Induction of apoptosis in human RKO cells assessed as early apoptotic cells at 9 uM incubated for 24 hr by Annexin-V-FITC/PI staining based flow cytometry (Rvb= 7.27%); assay type: functional
[4] = system: HT-29; assay: Induction of apoptosis in human HT-29 cells assessed as early apoptotic cells at 8 uM incubated for 24 hr by Annexin-V-FITC/PI staining based flow cytometry (Rvb=6.25%); assay type: functional
[5] = system: HT-29; assay: Induction of apoptosis in human HT-29 cells assessed as increase in cleaved caspase-9 protein level at 2 to 8 uM incubated for 24 hrs by western blot analysis; assay type: functional, cell-based; details: dose 2-8 µM
[6] = system: RKO; assay: Induction of apoptosis in human RKO cells assessed as late apoptotic cells at 6 uM incubated for 24 hr by Annexin-V-FITC/PI staining based flow cytometry (Rvb= 4.49%); assay type: functional
[7] = Tmax in Sprague-Dawley rat at 100 mg/kg, po and measured upto 24 hrs by LC-MS analysis; assay type: ADME, organism-based; details: in vivo
[8] = system: HT-29; assay: Induction of apoptosis in human HT-29 cells assessed as increase in Bax protein level at 2 to 8 uM incubated for 24 hrs by western blot analysis; assay type: functional, cell-based; details: dose 2-8 µM
[9] = system: RKO; assay: Induction of apoptosis in human RKO cells assessed as early apoptotic cells at 6 uM incubated for 24 hr by Annexin-V-FITC/PI staining based flow cytometry (Rvb= 7.27%); assay type: functional
[10] = system: RKO; assay: Induction of apoptosis in human RKO cells assessed as viable cells at 3 uM incubated for 24 hr by Annexin-V-FITC/PI staining based flow cytometry (Rvb= 87.9%); assay type: functional; details: read-out: Activity
[11] = system: RKO; assay: Induction of apoptosis in human RKO cells assessed as necrotic cells at 9 uM incubated for 24 hr by Annexin-V-FITC/PI staining based flow cytometry (Rvb= 0.30%); assay type: functional
[12] = system: HT-29; assay: Antitumor activity against human HT-29 cells xenografted in BALB/c mouse assessed as reduction of tumor weight at 30 mg/kg, ip bid and measured after 14 days; assay type: functional, organism-based; details: time 14.0 day
[13] = system: SW480; assay: Antitumor activity against human SW480 cells assessed as inhibition of cell proliferation incubated for 72 hrs by MTT assay; assay type: functional, cell-based; details: SW480, 72 h
[14] = Tmax in Sprague-Dawley rat at 30 mg/kg, po and measured upto 12 hrs by LC-MS analysis; assay type: ADME, organism-based; details: in vivo

Tmax [7]: 3.67 h
pIC50 [13]: 5.13
Tmax [14]: 0.28 h
Structure (SMILES): Cc1c(Cl)cccc1Nc1ccccc1C(=O)Nc1ccc(N2CCNCC2)cc1
Activity [1]: Active
inhibition [2]: Active
Activity [3]: 22.7%
Activity [4]: 3.96%
Activity [5]: Active
Activity [6]: 6.88%
Activity [8]: Active
Activity [9]: 10.5%
viability at 3 µM [10]: 88%
Activity [11]: 0.59%
Activity [12]: Active
